Reference: PubChem BioAssay AID1745844 (Carcinogenic Potency Database (CPDB), 2022)
Active and inactive are the calls of the source. No rule for the calls is given here.

Test system: rodent lifetime carcinogenesis bioassay, tumor incidence TD50
Assay: carcinogenic potency in animals, long-term in vivo studies, CPDB compilation (AID 1745844)

`CCCCN(CCCC)C(=S)[S-].CCCCN(CCCC)C(=S)[S-].[Ni+2]` was tested, and the TD50 (mouse, strain B6AKF1, females, oral dosing, site: any site (literature study), lesion: several types, types named in the paper, dosed 76 weeks, study length 76 weeks) was 0.185 mg/kg/day (inactive), the carcinogen call (mouse, strain B6AKF1, females, oral dosing, site: liver, lesion: hepatoma, dosed 76 weeks, study length 76 weeks) was “negative (inactive)” and the TD50 (mouse, strain B6AKF1, females, oral dosing, site: lung, lesion: adenoma, dosed 76 weeks, study length 76 weeks) was 0.0869 mg/kg/day (inactive). The carcinogen call (mouse, strain B6AKF1, males, oral dosing, site: any site (literature study), lesion: several types, types named in the paper, dosed 76 weeks, study length 76 weeks) was “negative (inactive)”, the carcinogen call (mouse, strain B6AKF1, males, oral dosing, site: liver, lesion: hepatoma, dosed 76 weeks, study length 76 weeks) was “negative (inactive)” and the TD50 (mouse, strain B6AKF1, males, oral dosing, site: lung, lesion: adenoma, dosed 76 weeks, study length 76 weeks) was 0.153 mg/kg/day (inactive). The TD50 (mouse, strain B6C3F1, females, oral dosing, site: any site (literature study), lesion: several types, types named in the paper, dosed 76 weeks, study length 76 weeks) was 0.174 mg/kg/day (inactive), the carcinogen call (mouse, strain B6C3F1, females, oral dosing, site: liver, lesion: hepatoma, dosed 76 weeks, study length 76 weeks) was “negative (inactive)” and the TD50 (mouse, strain B6C3F1, females, oral dosing, site: lung, lesion: adenoma, dosed 76 weeks, study length 76 weeks) was 0.174 mg/kg/day (inactive). The TD50 (mouse, strain B6C3F1, males, oral dosing, site: any site (literature study), lesion: several types, types named in the paper, dosed 76 weeks, study length 76 weeks) was 0.0283 mg/kg/day (inactive), the TD50 (mouse, strain B6C3F1, males, oral dosing, site: liver, lesion: hepatoma, dosed 76 weeks, study length 76 weeks) was 0.0509 mg/kg/day (inactive) and the TD50 (mouse, strain B6C3F1, males, oral dosing, site: lung, lesion: adenoma, dosed 76 weeks, study length 76 weeks) was 0.163 mg/kg/day (inactive).
In the case of `O=S(O)O`, the TD50 (mouse, strain ICR/Jcl, females, in drinking water, site: liver, lesion: hemangioendothelial sarcoma, dosed 104 weeks, study length 104 weeks) is reported as 204000 mg/kg/day (inactive), the TD50 (mouse, strain ICR/Jcl, females, in drinking water, site: lung, lesion: adenocarcinoma, dosed 104 weeks, study length 104 weeks) is reported as 100000 mg/kg/day (inactive) and the TD50 (mouse, strain ICR/Jcl, females, in drinking water, site: lung, lesion: adenoma, dosed 104 weeks, study length 104 weeks) is reported as 33600 mg/kg/day (inactive). For the same compound, the carcinogen call (mouse, strain ICR/Jcl, males, in drinking water, site: liver, lesion: one or several types, types not named, dosed 104 weeks, study length 104 weeks) was “negative (inactive)”, the TD50 (mouse, strain ICR/Jcl, males, in drinking water, site: lung, lesion: adenocarcinoma, dosed 104 weeks, study length 104 weeks) was 84800 mg/kg/day (inactive) and the TD50 (mouse, strain ICR/Jcl, males, in drinking water, site: lung, lesion: adenoma, dosed 104 weeks, study length 104 weeks) was 84800 mg/kg/day (inactive).
For `CC1(C)[C@H](C(=O)O[C@H](C#N)c2cccc(Oc3ccccc3)c2)[C@@H]1C=C(Br)Br`, the carcinogen call (mouse, strain C57BL/6, females, by gavage, site: all sites, lesion: lymphoma, dosed 104 weeks, study length 114 weeks) was “negative (inactive)”, the carcinogen call (mouse, strain C57BL/6, females, by gavage, site: any site (literature study), lesion: one or several types, types not named, dosed 104 weeks, study length 114 weeks) was “negative (inactive)” and the carcinogen call (mouse, strain C57BL/6, females, by gavage, site: liver, lesion: hepatoma, dosed 104 weeks, study length 114 weeks) was “negative (inactive)”. The carcinogen call (mouse, strain C57BL/6, females, by gavage, site: lung, lesion: adenoma, dosed 104 weeks, study length 114 weeks) was “negative (inactive)”, the carcinogen call (mouse, strain C57BL/6, males, by gavage, site: any site (literature study), lesion: one or several types, types not named, dosed 104 weeks, study length 114 weeks) was “negative (inactive)” and the carcinogen call (mouse, strain C57BL/6, males, by gavage, site: liver, lesion: hepatoma, dosed 104 weeks, study length 114 weeks) was “negative (inactive)”. The carcinogen call (mouse, strain C57BL/6, males, by gavage, site: lung, lesion: adenoma, dosed 104 weeks, study length 114 weeks) was “negative (inactive)”, the TD50 (rat, strain BD VI, females, by gavage, site: any site (literature study), lesion: one or several types, types not named, dosed 104 weeks, study length 114 weeks) was 36.1 mg/kg/day (inactive) and the carcinogen call (rat, strain BD VI, females, by gavage, site: liver, lesion: hepatoma, dosed 104 weeks, study length 114 weeks) was “negative (inactive)”. The TD50 (rat, strain BD VI, females, by gavage, site: thyroid gland, lesion: adenoma, dosed 104 weeks, study length 114 weeks) was 16.9 mg/kg/day (inactive), the carcinogen call (rat, strain BD VI, males, by gavage, site: any site (literature study), lesion: one or several types, types not named, dosed 104 weeks, study length 114 weeks) was “negative (inactive)” and the carcinogen call (rat, strain BD VI, males, by gavage, site: liver, lesion: hepatoma, dosed 104 weeks, study length 114 weeks) was “negative (inactive)”. The TD50 (rat, strain BD VI, males, by gavage, site: thyroid gland, lesion: adenoma, dosed 104 weeks, study length 114 weeks) was 4.6 mg/kg/day (inactive).
In the case of `O=C(O)c1ccc(N=Nc2ccc(O)c(C(=O)O)c2)cc1`, the TD50 (mouse, strain NMRI, females, in feed, site: all sites, lesion: lymphoma, dosed 107 weeks, study length 107 weeks) is reported as 1200 mg/kg/day (inactive), the carcinogen call (mouse, strain NMRI, females, in feed, site: liver, lesion: hepatocellular adenoma, dosed 107 weeks, study length 107 weeks) is reported as “negative (inactive)” and the carcinogen call (mouse, strain NMRI, females, in feed, site: lung, lesion: alveolar/bronchiolar adenocarcinoma, dosed 107 weeks, study length 107 weeks) is reported as “negative (inactive)”. The TD50 (mouse, strain NMRI, females, in feed, site: lung, lesion: alveolar/bronchiolar adenoma, dosed 107 weeks, study length 107 weeks) was 2650 mg/kg/day (inactive), the TD50 (mouse, strain NMRI, males, in feed, site: liver, lesion: hepatocellular adenoma, dosed 120 weeks, study length 120 weeks) was 35200 mg/kg/day (inactive) and the TD50 (mouse, strain NMRI, males, in feed, site: liver, lesion: hepatocellular carcinoma, dosed 120 weeks, study length 120 weeks) was 19500 mg/kg/day (inactive). The TD50 (mouse, strain NMRI, males, in feed, site: lung, lesion: alveolar/bronchiolar adenocarcinoma, dosed 120 weeks, study length 120 weeks) was 14300 mg/kg/day (inactive), the TD50 (mouse, strain NMRI, males, in feed, site: lung, lesion: alveolar/bronchiolar adenoma, dosed 120 weeks, study length 120 weeks) was 13000 mg/kg/day (inactive) and the carcinogen call (rat, strain Sprague-Dawley, females, in feed, site: liver, lesion: hepatocellular tumor, dosed 119 weeks, study length 119 weeks) was “negative (inactive)”. For the same compound, the carcinogen call (rat, strain Sprague-Dawley, males, in feed, site: liver, lesion: hepatocellular adenoma, dosed 118 weeks, study length 118 weeks) was “negative (inactive)”, the carcinogen call (rat, strain Sprague-Dawley, males, in feed, site: liver, lesion: hepatocellular carcinoma, dosed 118 weeks, study length 118 weeks) was “negative (inactive)” and the TD50 (rat, strain Sprague-Dawley, males, in feed, site: thyroid gland, lesion: follicular-cell adenoma, dosed 118 weeks, study length 118 weeks) was 15300 mg/kg/day.
In the case of `CCNC(=S)NCC`, the carcinogen call (mouse, strain B6C3F1, females, in feed, site: any site (literature study), lesion: several types, types named in the paper, dosed 103 weeks, study length 104 weeks) is reported as “negative (inactive)”, the TD50 (mouse, strain B6C3F1, females, in feed, site: liver, lesion: hepatocellular adenoma + hepatocellular carcinoma + neoplastic nodule, dosed 103 weeks, study length 104 weeks) is reported as 687 mg/kg/day and the carcinogen call (mouse, strain B6C3F1, males, in feed, site: any site (literature study), lesion: several types, types named in the paper, dosed 103 weeks, study length 104 weeks) is reported as “negative (inactive)”. The TD50 (rat, strain F344/DuCrj, males, in feed, site: thyroid gland, lesion: follicular-cell carcinoma, dosed 52 weeks, study length 52 weeks) was 28.1 mg/kg/day, the TD50 (rat, strain Fischer 344, females, in feed, site: any site (literature study), lesion: several types, types named in the paper, dosed 104 weeks, study length 104 weeks) was 21.5 mg/kg/day and the TD50 (rat, strain Fischer 344, females, in feed, site: thyroid gland, lesion: follicular-cell adenoma + follicular-cell carcinoma, dosed 104 weeks, study length 104 weeks) was 23.8 mg/kg/day. For the same compound, the TD50 (rat, strain Fischer 344, females, in feed, site: thyroid gland, lesion: follicular-cell carcinoma, dosed 104 weeks, study length 104 weeks) was 57.9 mg/kg/day, the TD50 (rat, strain Fischer 344, males, in feed, site: any site (literature study), lesion: several types, types named in the paper, dosed 103 weeks, study length 104 weeks) was 12.9 mg/kg/day and the TD50 (rat, strain Fischer 344, males, in feed, site: thyroid gland, lesion: follicular-cell adenoma + follicular-cell carcinoma, dosed 103 weeks, study length 104 weeks) was 24.3 mg/kg/day. It also gave a TD50 (rat, strain Fischer 344, males, in feed, site: thyroid gland, lesion: follicular-cell carcinoma, dosed 103 weeks, study length 104 weeks) of 33.6 mg/kg/day.
